Results on 1 compound are retold here after patent US20080282364A1, “Phosphodiesterase 9 Inhibition as Treatment for Obesity-Related Conditions” (priority 2003, published 2008).

This assay concerns ob/ob mice. Description: Effect of pharmacologic PDE9 inhibition on body weight, food intake and plasma metabolites in ob/ob mice. It counts as in vivo, mouse. The note with it: female ob/ob mice. The protocol:
On Day 1, plasma glucose was determined via retro-orbital blood samples. 25 μL of blood was added to 100 μL of 0.025 percent heparinized-saline in microtubes (Denville Scientific, Inc., Metuchen, N.J.). The tubes were spun at the highest setting in a Beckman Microfuge 12 for 2 minutes. Plasma was collected for plasma glucose and triglyceride determination, as further described below. During the course of the study, body weight and food consumption were assessed, and blood samples were taken at approximately 8 am for plasma glucose and triglyceride measures, as further described below.
Plasma glucose, triglycerides, and fructosamine were measured using the Roche/Hitachi 912 Clinical Chemistry Analyzer (Roche Diagnostics Corp., Indianapolis, Ind.). Plasma cGMP was measured using the BioTrak™ enzyme-immunoassay system (Amersham, Piscataway, N.J.). Plasma insulin was assessed via a similar technique using the Mercodia ELISA Insulin kit supplied by ALPCO (Uppsala, Sweden). All assays were conducted according to each manufacturer's instructions.
Female ob/ob mice obtained from Jackson Laboratories (Bar Harbor, Me.) were used at 6 to 10 weeks of age. Mice were housed five per cage and allowed free access to water and, initially, to D11 mouse chow. Following a one week acclimation period, mice were switched to a powdered diet (Mouse Breeder/Auto-JL K20 mouse chow, PMI Feeds, Inc., St. Louis, Mo.) for three days and allowed to adapt to the diet prior to the start of the PDE9 inhibitor dosing period.
The PDE9 inhibitor compound (Compound A) was administered in powdered mouse chow that was custom ground (Research Diets, Inc., New Brunswick, N.J.) as a compound/chow admixture; compounds were mixed with the chow to achieve consumption of the specified doses ranging from 1-200 mg/kg/day. In addition to a compound-free control group, a group consuming darglitazone (1 mg/kg/day) was also included as a positive control.
Mice were randomly assigned to groups of ten with five mice per cage. Body weight was determined on Day 0 and weekly thereafter. On Day 1, retro-orbital blood samples were obtained and plasma glucose was determined as previously described. On the final day of the study, blood samples were taken for glucose, triglyceride, insulin, and cGMP measurements, as previously described.

Each structure is given as a SMILES string.

For `CC(C)c1n[nH]c2c(=O)[nH]c(Cc3ccccc3OCCN3CCOCC3)nc12` [Compound A, 3-isopropyl-5-[2-(2-morpholin-4-yl-ethoxy)-benzyl]-1,6-dihydro-pyrazolo[4,3-d]pyrimidin-7-one], where the note is “100 mg/kg/day (FIG. 10)”, the plasma glucose result is given as “decreased”. Besides, the plasma triglycerides result (100 mg/kg/day (FIG. 11)) is reported as “decreased”. For the same compound, under “100 mg/kg/day in chow, compared to compound-free control diet or darglitazone-treated diet (FIG. 7)”, the body weight gain entry is reported as “reduced body weight gain”. Also, under “100 mg/kg/day, Day 16 (FIG. 12)”, the plasma fructosamine entry is on record as “decreased”. The food intake entry (100 mg/kg/day, later stages of the study (FIG. 9)) is “no effect on food intake”. In addition, the “reducing the normal body weight gain (dose effect)” value (following 2 and 4 days of treatment (FIG. 8A)) is listed as “dose-dependent effect”. Besides, the “reducing food intake (dose effect)” value (following 2 and 4 days of treatment (FIG. 8B)) was “dose-dependent effect”.
